Experimental data as given in the NIST ThermoML archive (doi:10.1021/je034076x).

Experiments:
[1] = xn = mol fraction of the nth substance listed; conditions: 101.3 kPa, Liquid; for viscosity: Capillary tube (Ostwald / Ubbelohde) method; for speed of sound: Pulse-echo method; for mass density: Vibrating tube method
[2] = excess molar enthalpy (molar enthalpy of mixing); xn = mol fraction of the nth substance listed; conditions: 101.3 kPa, Liquid, Flow calorimetry

OCC(F)(F)F [2,2,2-trifluoroethanol] + C1CCOC1
Conditions	excess molar enthalpy [kcal/mol]	mass density [kg/m3]	speed of sound [m/s]	viscosity [mPa·s]
[1], 283.15 K, x2 = 0.1022	–	–	–	2.107
[1], 283.15 K, x2 = 0.1087	–	1336.89	897.7	–
[1], 283.15 K, x2 = 0.2018	–	–	–	1.578
[1], 283.15 K, x2 = 0.2084	–	1277.4	932.6	–
[1], 283.15 K, x2 = 0.299	–	1226.31	966.8	–
[1], 283.15 K, x2 = 0.3033	–	–	–	1.246
[1], 283.15 K, x2 = 0.4037	–	–	–	1.037
[1], 283.15 K, x2 = 0.4038	–	1171.02	1010.1	–
[1], 283.15 K, x2 = 0.4953	–	1125.37	1052.1	–
[1], 283.15 K, x2 = 0.5014	–	–	–	0.8927
[1], 283.15 K, x2 = 0.5967	–	1076.79	–	–
[1], 283.15 K, x2 = 0.6013	–	–	1104.4	–
[1], 283.15 K, x2 = 0.6036	–	–	–	0.7821
[1], 283.15 K, x2 = 0.7004	–	–	–	0.7023
[1], 283.15 K, x2 = 0.7048	–	1027.26	1161.1	–
[1], 283.15 K, x2 = 0.7958	–	–	1213.8	–
[1], 283.15 K, x2 = 0.8048	–	982.37	–	–
[1], 283.15 K, x2 = 0.8532	–	–	–	0.6208
[1], 283.15 K, x2 = 0.8868	–	946.79	–	–
[1], 283.15 K, x2 = 0.9033	–	–	–	0.5846
[1], 283.15 K, x2 = 0.9058	–	–	1283.2	–
[1], 283.15 K, x2 = 0.9657	–	913.1	1324.1	–
[1], 298.15 K, x2 = 0.0362	–	1358.26	–	–
[1], 298.15 K, x2 = 0.1022	–	–	–	1.467
[1], 298.15 K, x2 = 0.1041	–	1315.13	–	–
[1], 298.15 K, x2 = 0.1106	–	–	854.6	–
[1], 298.15 K, x2 = 0.2018	–	–	–	1.169
[1], 298.15 K, x2 = 0.2053	–	1255.19	–	–
[1], 298.15 K, x2 = 0.2095	–	–	885	–
[1], 298.15 K, x2 = 0.3019	–	–	917.9	–
[1], 298.15 K, x2 = 0.3031	–	1201.4	–	–
[1], 298.15 K, x2 = 0.3033	–	–	–	0.9632
[1], 298.15 K, x2 = 0.4018	–	1150.15	–	–
[1], 298.15 K, x2 = 0.4037	–	–	–	0.8286
[1], 298.15 K, x2 = 0.4065	–	–	959.4	–
[1], 298.15 K, x2 = 0.4986	–	1103.07	–	–
[1], 298.15 K, x2 = 0.5014	–	–	–	0.7228
[1], 298.15 K, x2 = 0.5076	–	–	1003.3	–
[1], 298.15 K, x2 = 0.5989	–	1055.77	–	–
[1], 298.15 K, x2 = 0.6036	–	–	–	0.6432
[1], 298.15 K, x2 = 0.6172	–	–	1055.8	–
[1], 298.15 K, x2 = 0.7004	–	–	–	0.5841
[1], 298.15 K, x2 = 0.7019	–	1009.19	–	–
[1], 298.15 K, x2 = 0.7123	–	–	1104.9	–
[1], 298.15 K, x2 = 0.7978	–	967.32	–	–
[1], 298.15 K, x2 = 0.8205	–	–	1164.5	–
[1], 298.15 K, x2 = 0.8532	–	–	–	0.5222
[1], 298.15 K, x2 = 0.899	–	924.33	–	–
[1], 298.15 K, x2 = 0.9033	–	–	–	0.4959
[1], 298.15 K, x2 = 0.9042	–	–	1216.3	–
[1], 313.15 K, x2 = 0.1022	–	–	–	1.057
[1], 313.15 K, x2 = 0.1024	–	1291.64	808.3	–
[1], 313.15 K, x2 = 0.1991	–	1234.96	834.3	–
[1], 313.15 K, x2 = 0.2018	–	–	–	0.8873
[1], 313.15 K, x2 = 0.3032	–	1178.51	868.4	–
[1], 313.15 K, x2 = 0.3033	–	–	–	0.7583
[1], 313.15 K, x2 = 0.3554	–	1151.61	886.4	–
[1], 313.15 K, x2 = 0.4037	–	–	–	0.6648
[1], 313.15 K, x2 = 0.4972	–	1082.56	942.6	–
[1], 313.15 K, x2 = 0.5014	–	–	–	0.5936
[1], 313.15 K, x2 = 0.596	–	1037.96	985.9	–
[1], 313.15 K, x2 = 0.6036	–	–	–	0.5356
[1], 313.15 K, x2 = 0.7004	–	–	–	0.4916
[1], 313.15 K, x2 = 0.7191	–	983.05	1045.5	–
[1], 313.15 K, x2 = 0.7922	–	952.13	1082.8	–
[1], 313.15 K, x2 = 0.8532	–	–	–	0.4431
[1], 313.15 K, x2 = 0.8937	–	909.37	1138.7	–
[1], 313.15 K, x2 = 0.9033	–	–	–	0.4239
[2], 283.15 K, x2 = 0.053	-0.0915	–	–	–
[2], 283.15 K, x2 = 0.107	-0.173	–	–	–
[2], 283.15 K, x2 = 0.212	-0.295	–	–	–
[2], 283.15 K, x2 = 0.316	-0.381	–	–	–
[2], 283.15 K, x2 = 0.417	-0.415	–	–	–
[2], 283.15 K, x2 = 0.517	-0.413	–	–	–
[2], 283.15 K, x2 = 0.618	-0.375	–	–	–
[2], 283.15 K, x2 = 0.717	-0.304	–	–	–
[2], 283.15 K, x2 = 0.81	-0.216	–	–	–
[2], 283.15 K, x2 = 0.908	-0.107	–	–	–
[2], 283.15 K, x2 = 0.954	-0.0509	–	–	–
[2], 298.15 K, x2 = 0.053	-0.113	–	–	–
[2], 298.15 K, x2 = 0.107	-0.224	–	–	–
[2], 298.15 K, x2 = 0.212	-0.369	–	–	–
[2], 298.15 K, x2 = 0.316	-0.45	–	–	–
[2], 298.15 K, x2 = 0.417	-0.479	–	–	–
[2], 298.15 K, x2 = 0.517	-0.467	–	–	–
[2], 298.15 K, x2 = 0.618	-0.418	–	–	–
[2], 298.15 K, x2 = 0.717	-0.341	–	–	–
[2], 298.15 K, x2 = 0.81	-0.237	–	–	–
[2], 298.15 K, x2 = 0.908	-0.117	–	–	–
[2], 298.15 K, x2 = 0.954	-0.0559	–	–	–
[2], 313.15 K, x2 = 0.053	-0.113	–	–	–
[2], 313.15 K, x2 = 0.107	-0.222	–	–	–
[2], 313.15 K, x2 = 0.212	-0.375	–	–	–
[2], 313.15 K, x2 = 0.316	-0.474	–	–	–
[2], 313.15 K, x2 = 0.417	-0.512	–	–	–
[2], 313.15 K, x2 = 0.517	-0.5	–	–	–
[2], 313.15 K, x2 = 0.618	-0.447	–	–	–
[2], 313.15 K, x2 = 0.717	-0.361	–	–	–
[2], 313.15 K, x2 = 0.81	-0.254	–	–	–
[2], 313.15 K, x2 = 0.908	-0.125	–	–	–
[2], 313.15 K, x2 = 0.954	-0.0614	–	–	–
